Results published in patent US10329294B2, “Pyrazolopyrimidine inhibitors of IRAK4 activity” (MERCK SHARP & DOHME CORP., priority 2015, dated 2019).
Where a name gives a salt, the structure may show the parent alone.

Target: IRAK4 (Homo sapiens (Human), UniProt Q9NWZ3)
Test: IRAK4 Kinase Assay
Type: biochemical
Conditions: IMAP fluorescence polarization, 0.5 nM GST tagged IRAK4, 100 μM ATP, 30 minutes at 25° C.; read-out: IRAK4 IC50

Chain of IRAK4 (Q9NWZ3 whole entry): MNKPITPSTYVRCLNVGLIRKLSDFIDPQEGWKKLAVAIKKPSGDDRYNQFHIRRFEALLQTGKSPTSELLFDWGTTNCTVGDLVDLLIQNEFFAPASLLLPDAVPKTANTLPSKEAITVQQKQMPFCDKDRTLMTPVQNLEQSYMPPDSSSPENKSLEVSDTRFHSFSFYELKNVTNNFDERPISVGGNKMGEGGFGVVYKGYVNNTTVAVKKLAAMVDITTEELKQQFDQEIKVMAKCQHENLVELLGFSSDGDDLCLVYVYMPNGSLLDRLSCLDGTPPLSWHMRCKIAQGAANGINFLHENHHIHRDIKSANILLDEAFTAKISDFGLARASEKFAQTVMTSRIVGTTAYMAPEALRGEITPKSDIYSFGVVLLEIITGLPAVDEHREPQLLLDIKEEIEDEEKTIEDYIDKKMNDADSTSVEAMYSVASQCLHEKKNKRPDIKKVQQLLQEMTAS

IC50 | SMILES
48 nM | O=C(Nc1cscc1C(F)F)c1cnn2ccc(N3CC4CCC3CN4)nc12 (centres unmarked) [Example 135, 5-(2,5-diazabicyclo[2.2.2]oct-2-yl)-N-[4-(difluoromethyl)thiopen-3-yl]pyrazolo[1,5-a]pyrimidine-3-carboxamide trifluoroacetate]
7 nM | Cn1cc(NC(=O)c2cnn3ccc(N[C@@H]4CCCC[C@@H]4N)nc23)c(-c2nncn2C)n1 [Example 286, 5-{[(1R,2S)-2-aminocyclohexyl]amino}-N-[1-methyl-3-(4-methyl-4H-1,2,4-triazol-3-yl)-1H-pyrazol-4-yl]pyrazolo[1,5-a]pyrimidine-3-carboxamide trifluoroacetate]
81 nM | O=C(Nc1cn(CC(F)(F)F)nc1C(F)(F)F)c1cnn2ccc(N3CCNCC3)nc12 [Example 299, 5-piperazin-1-yl-N-[1-(2,2,2-trifluoroethyl)-3-(trifluoromethyl)-1H-pyrazol-4-yl]pyrazolo[1,5-a]pyrimidine-3-carboxamide trifluoroacetate]
1 nM | N#Cc1ccccc1NC(=O)c1cnn2ccc(N[C@@H]3CCCC[C@@H]3N)nc12 [Example 265, 5-(((1R,2S)-2-Aminocyclohexyl)amino)-N-(2-cyanophenyl)pyrazolo[1,5-a]pyrimidine-3-carboxamide]
0.5 nM | Cn1cc(NC(=O)c2cnn3ccc(N[C@H]4CNCCC4(F)F)nc23)c(C(F)F)n1 (single isomer, unassigned) [Example 244, N-[(R or S)-3-(difluoromethyl)-1-methyl-1H-pyrazol-4-yl]-5-[(4,4-difluoropiperidin-3-yl)amino]pyrazolo[1,5-a]pyrimidine-3-carboxamide trifluoroacetate]
0.5 nM | N[C@H]1CCCC[C@H]1Nc1ccn2ncc(C(=O)Nc3cscc3C(F)F)c2n1 [Example 119, 5-{[(1R,2S)-2-aminocyclohexyl]amino}-N-[4-(difluoromethyl)thiophen-3-yl]pyrazolo[1,5-a]pyrimidine-3-carboxamide trifluoroacetate]
562 nM | N#Cc1ccccc1NC(=O)c1cnn2ccc(N[C@@H]3CCCC[C@@H]3O)nc12 [Example 266, N-(2-cyanophenyl)-5-{[(1R,2S)-2-hydroxycyclohexyl]amino}pyrazolo[1,5-a]pyrimidine-3-carboxamide trifluoroacetate]
126 nM | Cn1cc(NC(=O)c2cnn3ccc(N[C@@H]4CCCC(F)(F)[C@@H]4N)nc23)c(Br)n1 [Example 139, 5-{[(1R,2R)-2-amino-3,3-difluorocyclohexyl]amino}-N-(3-bromo-1-methyl-1H-pyrazol-4-yl)pyrazolo[1,5-a]pyrimidine-3-carboxamide trifluoroacetate]
0.4 nM | N[C@H]1CCCC[C@H]1Nc1ccn2ncc(C(=O)Nc3cn(C4CC4)nc3C(F)(F)F)c2n1 [Example 293, 5-{[(1R,2S)-2-aminocyclohexyl]amino}-N-[1-cyclopropyl-3-(trifluoromethyl)-1H-pyrazol-4-yl]pyrazolo[1,5-a]pyrimidine-3-carboxamide trifluoroacetate]
1 nM | N[C@H]1CCCC[C@H]1Nc1ccn2ncc(C(=O)Nc3cn(CC(F)(F)F)nc3C(F)(F)F)c2n1 [Example 295, 5-{[(1R,2S)-2-aminocyclohexyl]amino}-N-[1-(2,2,2-trifluoroethyl)-3-(trifluoromethyl)-1H-pyrazol-4-yl]pyrazolo[1,5-a]pyrimidine-3-carboxamide trifluoroacetate]
19 nM | Cn1cc(NC(=O)c2cnn3ccc(N[C@@H]4CCCC[C@@H]4N4CCOCC4)nc23)c(C(F)(F)F)n1 [Example 264, N-(1-Methyl-3-(trifluoromethyl)-1H-pyrazol-4-yl)-5-(((1R,2S)-2-morpholinocyclohexyl)amino)pyrazolo[1,5-a]pyrimidine-3-carboxamide]
8 nM | Cn1cc(NC(=O)c2cnn3ccc(N[C@H]4CNCCC4(F)F)nc23)c(C(F)(F)F)n1 (single isomer, unassigned) [Example 245, 5-[(R or S)-(4,4-difluoropiperidin-3-yl)amino]-N-[1-methyl-3-(trifluoromethyl)-1H-pyrazol-4-yl]pyrazolo[1,5-a]pyrimidine-3-carboxamide trifluoroacetate]

More lines, now with the values behind:

SMILES | IC50
Cn1cc(NC(=O)c2cnn3ccc(N4CCCNCC4)nc23)c(C(F)(F)F)n1 [Example 8, 5-(1,4-diazepan-1-yl)-N-[1-methyl-3-(trifluoromethyl)-1H-pyrazol-4-yl]pyrazolo[1,5-a]pyrimidine-3-carboxamide trifluoroacetate] | 66 nM
Cn1cc(NC(=O)c2cnn3ccc(N4C5CCC4CNC5)nc23)c(C(F)F)n1 [Example 229, 5-(3,8-diazabicyclo[3.2.1]oct-8-yl)-N-[3-(difluoromethyl)-1-methyl-1H-pyrazol-4-yl]pyrazolo[1,5-a]pyrimidine-3-carboxamide trifluoroacetate] | 0.5 nM
CC(C)(C)n1cc(NC(=O)c2cnn3ccc(N4CCNCC5(CC5)C4)nc23)c(C(F)(F)F)n1 [Example 47, N-[1-tert-butyl-3-(trifluoromethyl)-1H-pyrazol-4-yl]-5-(5,8-diazaspiro[2.6]non-5-yl)pyrazolo[1,5-a]pyrimidine-3-carboxamide trifluoroacetate] | 49 nM
Cn1cc(NC(=O)c2cnn3ccc(NC4CNCCC4F)nc23)c(C(F)F)n1 (single isomer, unassigned) [Example 234, N-[3-(difluoromethyl)-1-methyl-1H-pyrazol-4-yl]-5-[(3R or S, 4R or S-4-fluoropiperidin-3-yl)amino]pyrazolo[1,5-a]pyrimidine-3-carboxamide] | 5 nM
Cn1cc(NC(=O)c2cnn3ccc(N4CCCNCC4)nc23)c(C(F)F)n1 [Example 87, 5-(1,4-diazepan-1-yl)-N-[3-(difluoromethyl)-1-methyl-1H-pyrazol-4-yl]pyrazolo[1,5-a]pyrimidine-3-carboxamide trifluoroacetate] | 4 nM
Cn1cc(NC(=O)c2cnn3ccc(N[C@H]4CNC[C@@H](F)C4)nc23)c(C(F)(F)F)n1 [Example 257, 5-{[(3R,5S)-5-fluoropiperidin-3-yl]amino}-N-[1-methyl-3-(trifluoromethyl)-1H-pyrazol-4-yl]pyrazolo[1,5-a]pyrimidine-3-carboxamide hydrochloride] | 0.6 nM
Cn1cc(NC(=O)c2cnn3ccc(N4CCNCC5(CC5)C4)nc23)c(C(F)(F)F)n1 [Example 14, 5-(5,8-diazaspiro[2.6]non-5-yl)-N-[1-methyl-3-(trifluoromethyl)-1H-pyrazol-4-yl]pyrazolo[1,5-15a]pyrimidine-3-carboxamide trifluoroacetate] | 16 nM
Cn1cc(NC(=O)c2cnn3ccc(N4CCN5CCC4C5)nc23)c(C(F)(F)F)n1 (centres unmarked) [Example 43, 5-(1,4-diazabicyclo[3.2.1]oct-4-yl)-N-[1-methyl-3-(trifluoromethyl)-1H-pyrazol-4-yl]pyrazolo[1,5-a]pyrimidine-3-carboxamide trifluoroacetate] | 45 nM
Cn1cc(NC(=O)c2cnn3ccc(N4CCC[C@H](O)C4)nc23)c(C(F)F)n1 [Example 26, N-[3-(difluoromethyl)-1-methyl-1H-pyrazol-4-yl]-5-[(3S)-3-hydroxypiperidin-1-yl]pyrazolo[1,5-a]pyrimidine-3-carboxamide] | 0.5 nM
CC(C)(C)n1cc(NC(=O)c2cnn3ccc(N4CCNCC4)nc23)c(C(F)(F)F)n1 [Example 46, N-[1-tert-butyl-3-(trifluoromethyl)-1H-pyrazol-4-yl]-5-piperazin-1-ylpyrazolo[1,5-a]pyrimidine-3-carboxamide trifluoroacetate] | 48 nM
O=C(Nc1ccccc1Cl)c1cnn2ccc(N[C@@H]3CCCC[C@@H]3O)nc12 [Example 194, N-(2-chlorophenyl)-5-{[(1R,2S)-2-hydroxycyclohexyl]amino} pyrazolo[1,5-a]pyrimidine-3-carboxamide] | 1750 nM
C[C@@H]1CN(c2ccn3ncc(C(=O)Nc4cn(C)nc4C(F)(F)F)c3n2)[C@H](C)CN1 (relative stereo) [Example 75, 5-[cis-2,5-dimethylpiperazin-1-yl]-N-[1-methyl-3-(trifluoromethyl)-1H-pyrazol-4-yl]pyrazolo[1,5-a]pyrimidine-3-carboxamide trifluoroacetate] | 55 nM
Cn1cc(NC(=O)c2cnn3ccc(N4C[C@H]5CN[C@H](C5)C4)nc23)c(C(F)(F)F)n1 (single isomer, unassigned) [Example 225, 5-[(1S,5S)- or (1R,5R)-3,6-diazabicyclo[3.2.1]oct-3-yl]-N-[1-methyl-3-(trifluoromethyl)-1H-pyrazol-4-yl]pyrazolo[1,5-a]pyrimidine-3-carboxamide] | 310 nM
N#Cc1sccc1NC(=O)c1cnn2ccc(N[C@@H]3CCCC[C@@H]3N)nc12 [Example 42, 5-{[(1R,2S)-2-aminocyclohexyl]amino}-N-(2-cyanothiophen-3-yl)pyrazolo[1,5-a]pyrimidine-3-carboxamide trifluoroacetate] | 0.9 nM

Same assay, conditions: IRAK4 IC50 (nM), IMAP fluorescence polarization, 0.5 nM GST tagged IRAK4, 100 μM ATP, 30 minutes at 25° C.

SMILES | IC50
Cn1cc(NC(=O)c2cnn3ccc(N4CCNC5(CC4)CC5)nc23)c(C(F)(F)F)n1 [Example 220, 5-(4,7-diazaspiro[2.6]non-7-yl)-N-[1-methyl-3-(trifluoromethyl)-1H-pyrazol-4-yl]pyrazolo[1,5-a]pyrimidine-3-carboxamide trifluoroacetate] | 153 nM
CC(C)n1cc(NC(=O)c2cnn3ccc(N[C@@H]4CCCC[C@@H]4O)nc23)c(C(F)(F)F)n1 [Example 52, 5-{[(1R,2S)-2-hydroxycyclohexyl]amino}-N-[1-(1-methylethyl)-3-(trifluoromethyl)-1H-pyrazol-4-yl]pyrazolo[1,5-a]pyrimidine-3-carboxamide] | 64 nM
Cn1cc(NC(=O)c2cnn3ccc(N[C@H]4CC(F)(F)CC[C@H]4N)nc23)c(C(F)F)n1 (single isomer, unassigned) [Example 208, 5-{[(1S,2R)- or (1R,2S)-2-amino-5,5-difluorocyclohexyl]amino}-N-[3-(difluoromethyl)-1-methyl-1H-pyrazol-4-yl]pyrazolo[1,5-a]pyrimidine-3-carboxamide] | 38 nM
